Assay results as given in PMC10993450, “New benzimidazole derivative compounds with in vitro fasciolicidal properties” (Parasites & Vectors, 2024).
Several values for one entry are separate records, joined by “and”; a condition that tells them apart may be missing. Equal entries are not always repeated. Entries after “also recorded” stand apart in the source; their conditions may differ. Where two headings read alike, the source gives them in different places.

How the values were obtained:
Assay type in all cases: cell-based
[1] = tested on: Fasciola hepatica adults (ABZ-resistant isolate); assay: Adult viability test (AVT), motility inhibition; details: for inhibition at 10 µM: Fasciola hepatica
Experimental: The adult viability test was based on a previous study carried out by Kirchhofer et al. with minor modifications. In brief, adult F. hepatica flukes were recovered from bile ducts of infected sheep with the resistant isolate. Flukes were quickly washed with 0.9% (w/v) NaCl and placed in six-well plates (Costar, Spain) with RPMI 1640 culture medium (Sigma-Aldrich®, Spain) supplemented with antibiotics (50 μg/mL streptomycin and 50 IU/mL penicillin; Sigma-Aldrich®, Spain) and 80 μg/mL of a hemin solution at 37 °C.
To monitor the anthelmintic effect of BZDs and the commercial drug ABZ, two flukes per well were incubated up to 72 h at a final concentration of 10 µM. DMSO at 0.5% was used as negative control. The individual movement of each fluke was examined using an inverted microscope at 24, 48, and 72 h. The activity of the compounds was estimated as motility inhibition, using a scale of fluke viability ranging from 3 (normal movements) to 0 (death, no movement observed for 2 min). All tests were repeated at least twice at different days.
Additionally, the percentage of motility inhibition for each compound was calculated from […] to 48 and 72 h after treatment using the following formula: 100 × (mean of the motility score of BZD at 24 h − mean of the motility score of BZD at 48 or 72 h)/(mean of the motility score of BZD at 24 h).
For the AVT, statistical analysis was performed using GraphPad Prism version 8.0.2. The normality of the motility inhibition scores was assessed using the Shapiro–Wilk test. Then, differences among scores at the three time points (24, 48, and 72 h) were evaluated using the Friedman test. In cases where significant differences were observed, post hoc analysis was conducted using the Nemenyi test for multiple comparisons. Comparisons with a P value < 0.05 were considered statistically significant.

[2] = tested on: Fasciola hepatica eggs (ABZ-resistant isolate); assay: Egg hatch test (EHT), ABZ-resistant isolate; details: for % Ovicidal activity resistant isolate: 5 µM, mean ± SEM; for Ovicidal activity on the resistant isolate: 10 µM as printed
Source text: F. hepatica eggs were recovered after washing the gallbladder of three naturally infected sheep belonging to a flock suspected to be resistant to ABZ. From these eggs, metacercariae were produced at the Centro de Investigaciones de Mabegondo (AGACAL, Xunta de Galicia, Spain) following a previous protocol. These metacercariae were used to infect eight sheep with a dose of 200 metacercariae. The infection was confirmed individually 3 months after the infection by coprological analysis using a sedimentation technique. At that point, sheep were randomly located in two groups of four animals: one treated with a therapeutic dose of ABZ (7.5 mg/kg) and the other one only with water, as control group. To assess the efficacy of ABZ in this isolate, all sheep were humanely euthanized by an intravenous administration of a lethal dose of sodium pentobarbital (Dolethal®, Vetoquinol, Spain) 2 weeks later for fluke recovery and counting. Afterwards, the in vivo efficacy of ABZ was calculated as the percentage of adult worm reduction compared with the untreated control. Additionally, the number of eggs per gram of feces (EPG) was estimated on the treatment day (mentioned as day 0) and 14 days later to determine drug efficacy by means of the fecal egg count reduction test (FECRT).
During the necropsy, gallbladders from sheep belonging to the untreated group were taken to collect the eggs and carry out the in vitro EHT, while flukes collected from livers were used to conduct the adult viability test (AVT).
Those BZDs with an activity higher than 80% at a concentration of 10 µM were also screened on eggs and adults from the ABZ resistant isolate.
(§1) The in vitro EHT described in the current study was based on previous studies. Briefly, 100–120 eggs were incubated in 990 µL of water and 10 μL of each working solution at 25 °C in the dark for a period of 12 h. After incubation, eggs were gently washed with tap water three times to facilitate compound removal and kept in darkness at 25 °C for 14 days. After this period, eggs were exposed to light for 2 h to stimulate the hatching of eggs. Then, hatched and unhatched eggs were evaluated and counted using an optical microscope. The term “hatched eggs” includes both hatched and embryonated eggs. Negative control eggs were incubated with 10 μL of DMSO in 990 μL of water, reaching a maximum DMSO concentration of 1% (v/v), while ABZ at 0.5 µM was used as positive control. Each compound at a specific concentration was tested in triplicate in the same EHT and repeated at least two different days.
(§2) The efficacy of each compound and drug was calculated as its ovicidal activity following the formula below: Ovicidal activity%=100×%eggs hatched in negative control-%egg hatched after drug incubation/%egg hatched in control.

[3] = tested on: Fasciola hepatica eggs (ABZ-susceptible isolate); assay: Egg hatch test (EHT), ABZ-susceptible isolates; details: mean ± SEM; for killing at 5 µM: Fasciola hepatica, read-out: % Ovicidal activity susceptible isolate; for % Ovicidal activity: ABZ-susceptible isolate
Experimental: Eggs were recovered from gallbladders of cattle naturally infected with F. hepatica at the municipal slaughterhouse of León (Spain). For this, the bile of the gallbladders was filtered through sieves of different diameter size pores (500, 150, and 20 µm) using pressurized tap water. Eggs retained on the 20 µm pore size sieve were collected and stored at 4 °C in darkness until required within a maximum period of 2 months.
The susceptibility of the isolates to ABZ was confirmed by the egg hatch test (EHT) using an ABZ discriminant dose (DD) of 0.5 µM [23]. The technique is described in more detail below.
The in vitro anthelmintic activity of a total of 70 BZDs was initially tested on F. hepatica eggs recovered from gallbladders of cattle naturally infected with ABZ-susceptible isolates. The first screening was performed using a fixed concentration of 50 µM. […] Therefore, only BZDs with ovicidal activities over 80% progressed to the next assays at 10 µM. […] At this last concentration, the ovicidal effect of ABZ, ABZSO, and OXF was also evaluated.
as §1
With the aim to characterize the susceptibility of isolates from naturally infected cattle, the drug used in the EHT was ABZ, tested at a discriminant dose of 0.5 μM. Drug susceptibility is assumed when the ovicidal activity is over 70%, resistance when is lower than 40%, and a suspicion of resistance when activity is between these values at 0.5 μM.
as §2

SMILES | % Ovicidal activity ([3]; 50 µM) | further results
CCC[S+]([O-])c1ccc2[nH]c(NC(=O)OC)nc2c1 (centres unmarked) [ABZSO, albendazole sulfoxide, reference compound] | – | Motility inhibition of adults after 72 h of incubation (in words; significance vs 24 h) ([1]; 10 µM, ABZ-resistant isolate): nor those with ABZSO or BZD46, exhibited any significant motility inhibition; also recorded: no evidence of inhibition; also recorded: did not produce any motility alteration; inhibition at 10 µM ([1]; read-out: % Adult motility inhibition 48 h): 25%; inhibition at 10 µM ([1]; read-out: % Adult motility inhibition 72 h): 25%; % Ovicidal activity resistant isolate [2]: 26% and 26.12 ± 11.87%; Ovicidal activity on the resistant isolate [2]: 26%; killing at 5 µM [3]: > 98%
COc1ccc(-c2nc3ccccc3[nH]2)cc1 [BZD01] | 20.07 ± 9.32% | –
Clc1ccc(-c2nc3ccccc3[nH]2)cc1 [BZD02] | 09.55 ± 5.68% | –
Brc1ccc(-c2nc3ccccc3[nH]2)cc1 [BZD03] | 01.93 ± 1.11% | –
Cc1ccc2[nH]c(-c3ccc(Cl)cc3)nc2c1 [BZD05] | 35.59 ± 9.00% | % Ovicidal activity ([3]; 10 µM): around 50%
Cc1ccc(C)c(-c2nc3cc(C)ccc3[nH]2)c1 [BZD06] | 02.26 ± 1.30% and 04.63 ± 2.27% | –
COc1ccc(-c2nc3cc(C)ccc3[nH]2)cc1[N+](=O)[O-] [BZD07] | 07.13 ± 3.45% | –
O=[N+]([O-])c1ccc(-c2nc3cc(Cl)ccc3[nH]2)cc1 [BZD10] | 23.55 ± 8.06% | –
Cc1ccc(C)c(-c2nc3cc(Cl)ccc3[nH]2)c1 [BZD11] | 03.28 ± 1.45% | –
COc1ccc(-c2nc3cc(Cl)ccc3[nH]2)cc1[N+](=O)[O-] [BZD12] | 00.55 ± 9.45% | –
COc1ccc(-c2nc3cc(Cl)ccc3[nH]2)cc1N [BZD13] | 04.40 ± 1.38% | –
COc1ccc(-c2nc3cc([N+](=O)[O-])ccc3[nH]2)cc1 [BZD14] | 15.55 ± 7.35% | –
Cc1ccc(C)c(-c2nc3cc([N+](=O)[O-])ccc3[nH]2)c1 [BZD16] | 00.33 ± 0.33% | –
COc1ccc(-c2nc3cc([N+](=O)[O-])ccc3[nH]2)cc1[N+](=O)[O-] [BZD17] | 00.00 ± 0.00% | –
COc1ccc(-c2nc3cc(N)ccc3[nH]2)cc1 [BZD18] | 02.82 ± 1.42% | –
COc1ccc(-c2nc3cc(NC(=O)c4ccccn4)ccc3[nH]2)cc1 [BZD19] | 13.61 ± 3.64% | –
COc1ccc(-c2nc3cc(OC)ccc3[nH]2)cc1 [BZD20] | – | % Ovicidal activity ([3]; 10 µM): 24.59 ± 05.71%
COc1ccc2[nH]c(-c3ccc(Cl)cc3)nc2c1 [BZD21] | 06.88 ± 6.88% | –
COc1ccc2nc(-c3ccc(Br)cc3)[nH]c2c1 [BZD22] | 67.47 ± 5.64% | –
COc1ccc(-c2nc3cc(C)c(C)cc3[nH]2)cc1 [BZD23] | 59.08 ± 3.79% | –
COc1ccc(-c2nc3cc(Cl)c(Cl)cc3[nH]2)cc1 [BZD24] | 16.09 ± 6.50% | –
Cc1ccc(S(=O)(=O)Nc2nc3cc(C)ccc3[nH]2)cc1 [BZD25] | 3.94 ± 1.37% | –
Cc1ccc2[nH]c(NS(=O)(=O)c3ccc4ccccc4c3)nc2c1 [BZD26] | 2.23 ± 0.99% | –
COc1ccc(CNc2nc3cc(C)ccc3[nH]2)c(OC)c1OC [BZD28] | 01.02 ± 0.62% | –

SMILES | % Ovicidal activity ([3]; 50 µM) | further results
Cc1ccc2[nH]c(NCc3ccc4ccccc4c3)nc2c1 [BZD29] | 04.65 ± 1.98% | –
COc1ccc(CNc2nc3cc(Cl)ccc3[nH]2)cc1 [BZD33] | 05.52 ± 2.49% | –
COc1cc(CNc2nc3cc(Cl)ccc3[nH]2)cc(OC)c1OC [BZD34] | 00.39 ± 0.38% | –
Clc1ccc2[nH]c(NCc3ccco3)nc2c1 [BZD35] | 37.65 ± 13.55% | –
COc1ccc2[nH]c(NCc3ccccc3)nc2c1 [BZD36] | 70.94 ± 2.32% | –
COc1ccc(CNc2nc3cc(OC)ccc3[nH]2)cc1 [BZD37] | 08.66 ± 1.86% | –
COc1ccc2[nH]c(NCc3cccs3)nc2c1 [BZD40] | 17.73 ± 5.12% | –
COc1ccc(CNc2nc3cc(C)c(C)cc3[nH]2)cc1 [BZD41] | 05.76 ± 3.12% | –
COc1cc(CNc2nc3cc(C)c(C)cc3[nH]2)cc(OC)c1OC [BZD42] | 10.73 ± 3.26% | –
Clc1cc2nc(NCc3ccccc3)[nH]c2cc1Cl [BZD43] | 55.36 ± 3.12% | –
COc1cc(CNc2nc3cc(Cl)c(Cl)cc3[nH]2)cc(OC)c1OC [BZD45] | 00.91 ± 0.61% | –
COc1ccc(C(=O)Nc2nc3cc(C)ccc3[nH]2)cc1 [BZD48] | 09.72 ± 2.50% | –
Cc1ccc2[nH]c(NC(=O)c3cc([N+](=O)[O-])ccc3Cl)nc2c1 [BZD50] | 07.62 ± 2.71% | –
COc1cc(OC)cc(C(=O)Nc2nc3cc(C)ccc3[nH]2)c1 [BZD51] | 05.05 ± 2.51% | –
COc1cc(C(=O)Nc2nc3cc(C)ccc3[nH]2)cc(OC)c1OC [BZD52] | 02.50 ± 1.26% | –
Cc1ccc2[nH]c(NC(=O)Cc3ccc4ccccc4c3)nc2c1 [BZD53] | 01.07 ± 0.62% | –
Cc1ccc2[nH]c(NC(=O)Cc3cccs3)nc2c1 [BZD54] | 07.20 ± 3.47% | –
COc1ccc(C(=O)Nc2nc3cc(Cl)ccc3[nH]2)cc1 [BZD57] | 60.39 ± 10.70% | –
COc1ccc(C(=O)Nc2nc3cc(OC)ccc3[nH]2)cc1 [BZD60] | 01.08 ± 0.79% | –
Cc1cc2nc(NC(=O)c3cccc(Cl)c3)[nH]c2cc1C [BZD65] | 01.61 ± 0.82% | –
COc1ccc(C(=O)Nc2nc3cc(C)c(C)cc3[nH]2)cc1 [BZD66] | 00.26 ± 0.25% | –
O=C(Nc1nc2cc(Cl)c(Cl)cc2[nH]1)c1ccccc1 [BZD67] | 03.33 ± 2.51% | –
COc1ccc(C(=O)Nc2nc3cc(Cl)c(Cl)cc3[nH]2)cc1 [BZD70] | 02.75 ± 1.16% | –
COC(=O)Nc1nc2ccc([S+]([O-])c3ccccc3)cc2[nH]1 (centres unmarked) [OXF, oxfendazole, reference compound] | – | % Ovicidal activity resistant isolate [2]: 3% and 03.41 ± 02.08%; Ovicidal activity on the resistant isolate [2]: 3.5%; killing at 5 µM [3]: > 98%
